The target of the experiment is T1, WEE1 (Homo sapiens, UniProt P30291).
T1 construct: purchased Thermo Fisher Scientific (Life Technologies) SelectScreen
In words: SelectScreen LanthaScreen. The following applies: read-out: % displacement. Format: binding. A digest of the protocol:
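SelectScreen broad panel; activity (Z'LYTE, Adapta) plus binding formats. ATP: Km app for CSF1R Z'LYTE; 10 for CAMK1 Adapta. Readout = % per kinase.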
(In TR-FRET formats the signal depends on donor and acceptor labels being close together.)

The structures appear in SMILES notation.

T1 sequence (P30291 whole entry): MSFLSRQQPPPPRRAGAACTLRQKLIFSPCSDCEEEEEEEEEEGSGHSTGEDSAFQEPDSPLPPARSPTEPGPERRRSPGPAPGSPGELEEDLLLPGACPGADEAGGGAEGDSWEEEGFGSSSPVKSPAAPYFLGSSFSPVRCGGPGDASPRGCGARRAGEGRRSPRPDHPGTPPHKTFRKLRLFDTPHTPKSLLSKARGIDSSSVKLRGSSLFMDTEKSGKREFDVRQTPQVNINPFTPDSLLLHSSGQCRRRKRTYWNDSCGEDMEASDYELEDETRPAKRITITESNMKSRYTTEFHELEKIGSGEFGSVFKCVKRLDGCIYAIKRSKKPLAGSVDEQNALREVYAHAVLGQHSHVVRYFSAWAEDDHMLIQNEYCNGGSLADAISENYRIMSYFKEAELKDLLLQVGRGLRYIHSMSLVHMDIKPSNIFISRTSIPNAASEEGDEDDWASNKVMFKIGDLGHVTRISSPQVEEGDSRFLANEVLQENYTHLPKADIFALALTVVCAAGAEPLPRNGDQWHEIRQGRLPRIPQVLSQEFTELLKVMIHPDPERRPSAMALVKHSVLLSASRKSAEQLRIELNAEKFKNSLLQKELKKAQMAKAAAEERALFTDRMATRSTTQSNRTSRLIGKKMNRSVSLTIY

Take `CN(C(=O)CN1CCOCC1)c1ccc2sc3c(-c4cccc5c(=O)cc(N6CC7CCC(C6)O7)oc45)cccc3c2c1` [NU5455]: the inhibition at 1 µM came to 18.2%.

The values are drawn from PMC6934184, “Selective DNA-PKcs inhibition extends the therapeutic index of localized radiotherapy and chemotherapy” (The Journal of Clinical Investigation, 2019).
